Experimental data reported in ChEMBL document CHEMBL1152426, “Synthetic strategies toward carbocyclic purine-pyrimidine hybrid nucleosides” (Bioorg Med Chem, 2009).
Active and inactive are the calls of the source. The calls are words filed in the database; no cut-off is given here.

How the values were obtained:
[1] = Inhibition of DNA methyltransferase
[2] = Inhibition of S-adenosylhomocystein hydrolase
[3] = Inhibition of S-adenosylhomocystein hydrolase at 45 uM in presence of S-adenosylhomocystein
[4] = Inhibition of S-adenosylhomocystein hydrolase in presence of 10 uM of S-adenosylhomocystein

Activity [1] | Activity [2] | Activity [3] | Ki [2] [µM] | Activity [4] | Compound
inactive | inactive |  |  |  | O=c1[nH]c(=O)n([C@@H]2CC[C@@H](O)[C@H]2O)c2ncsc12
inactive |  | Active | 5 | Active | O=c1[nH]c(=O)n([C@@H]2CC[C@@H](O)[C@H]2O)c2nc[nH]c12
